Source: patent US4427587A, “Total synthesis of antitumor antibiotics BBM-2040A and BBM-2040B” (Bristol-Myers Company, priority 1982, dated 1984)
Values after ≈ are worked out from the molar mass of the structure shown. Like-named read-outs stand apart in the source and are kept apart here.

What was measured:
[1] = system: lymphocytic leukemia P388; experiment: antitumor activity against lymphocytic leukemia P388 in mice (Table 6); format: in vivo, mice (BDF1 strain); settings: qd 1→9; for antitumor activity in P388 experiment (comparison): ip
Experimental: The antitumor activity of BBM-2040A and B was determined in mice (BDF1 strain) against lymphocytic leukemia P388. Each mouse was inoculated intraperitoneally with 10^6 cells of tumor. Graded doses of test compounds were administered to mice intraperitoneally 24 hours after the tumor implantation. The treatments were given once daily for 9 days (qd 1→9 schedule). Neothramycin was comparatively tested as a reference compound.
*ratio of median survival time of test and control animals
**circle indicates significant antitumor effect.

[2] = system: gram-positive, gram-negative and acid-fast bacteria; experiment: antibacterial activity / spectrum; format: cell-based; settings: Streptococcus pyogenes, Micrococcus luteus, Micrococcus flavus and Mycobacterium strains
Experimental: (§1) The minimum inhibitory concentration (MIC) of BBM-2040 was determined for a variety of gram-positive, gram-negative and acid-fast bacteria by the serial two-fold agar dilution method. Nutrient agar medium was used for gram-positive and gram-negative organisms and No. 1001 medium (3% glycerol, 0.3% sodium L-glutamate, 0.2% peptone, 0.31% Na2 HPO4, 0.1% KH2 PO4, 0.005% ammonium citrate, 0.001% MgSO4 and 1.5% agar) for acid-fast organisms.

Escherichia coli NIHJ = experiment: MIC, serial two-fold agar dilution method; format: cell-based
Experimental: as §1

[3] = system: Streptococcus pyogenes PCI 1001; experiment: MIC, serial two-fold agar dilution method; format: cell-based; settings: PCI1001
Experimental: as §1

[4] = system: Streptococcus pyogenes A20201; experiment: MIC, serial two-fold agar dilution method; format: cell-based
Experimental: as §1

[5] = system: Staphylococcus aureus Smith; experiment: MIC, serial two-fold agar dilution method; format: cell-based
Experimental: as §1

Mycobacterium phlei D88 = experiment: MIC, serial two-fold agar dilution method; format: cell-based; settings: Mycolicibacterium phlei
Experimental: as §1

[6] = system: Mycobacterium smegmatis 607; experiment: MIC, serial two-fold agar dilution method; format: cell-based; settings: Mycolicibacterium smegmatis
Experimental: as §1

Micrococcus flavus D12 = experiment: MIC, serial two-fold agar dilution method; format: cell-based
Experimental: as §1

[7] = system: Staphylococcus aureus FDA 209P; experiment: MIC, serial two-fold agar dilution method; format: cell-based; settings: FDA209P
Experimental: as §1

[8] = system: Bacillus subtilis PCI 219; experiment: MIC, serial two-fold agar dilution method; format: cell-based; settings: PCI219
Experimental: as §1

[9] = system: Klebsiella pneumoniae D-11; experiment: MIC, serial two-fold agar dilution method; format: cell-based; settings: D11
Experimental: as §1

[10] = system: Pseudomonas aeruginosa A9930; experiment: MIC, serial two-fold agar dilution method; format: cell-based
Experimental: as §1

Escherichia coli Juhl = experiment: MIC, serial two-fold agar dilution method; format: cell-based
Experimental: as §1

Proteus vulgaris A9436 = experiment: MIC, serial two-fold agar dilution method; format: cell-based
Experimental: as §1

lymphatic leukemia P388 = experiment: antitumor activity against P388 leukemia in mice, second experiment (Table 7); format: in vivo, male BDF1 mice; settings: QD 1→9; for Effect MST % T/C: ≥ 125 significant
Experimental: In this experiment lymphatic leukemia P388 was implanted intraperitoneally into male BDF1 mice at an inoculum size of 10^6 cells per mouse. Test compounds were dissolved in 0.9% saline containing 10% dimethylsulfoxide. Graded doses of test compounds were administered to mice intraperitoneally 24 hours after the tumor implantation, and the treatment was continued once daily for 9 days.
Tumor inoculum: 10^6 ascites cells implanted i.p.
Treatment: QD 1→9, i.p.
Evaluation: MST = median survival time
Effect: % T/C = (MST treated/MST control) × 100
Criteria: % T/C ≥ 125 considered as significant antitumor activity

[11] = intraperitoneal; reported value; cited from earlier work

## COc1cc2c(cc1O)N=C[C@@H]1C[C@H](O)CN1C2=O [BBM-2040B]
[1]; 0.1 mg/kg/day ip
  T/C (%) in MST: 104%
[1]; 0.3 mg/kg/day ip
  T/C (%) in MST: 96%
[1]; 1 mg/kg/day ip
  T/C (%) in MST: 112%
[1]
  antitumor activity in P388 experiment (comparison): somewhat less active than BBM-2040A
solubility; benzene, chloroform and n-hexane
  solubility: practically insoluble
solubility; ethyl acetate, acetone and water
  solubility: slightly soluble
solubility; methanol ethanol, n-butanol and pyridine
  solubility: readily soluble
[2]
  antibacterial activity: weak antibacterial activity
Escherichia coli NIHJ; Escherichia coli NIHJ, read-out: MIC
  MIC: > 100 µg/mL
[3]; Streptococcus pyogenes PCI 1001, read-out: MIC
  MIC: 100 µg/mL (≈ 381 µM)
[4]; read-out: MIC
  MIC: 50 µg/mL (≈ 191 µM)
[5]; Staphylococcus aureus Smith, read-out: MIC
  MIC: > 100 µg/mL
Mycobacterium phlei D88; Mycobacterium phlei D88, No. 1001 medium, read-out: MIC
  MIC: 100 µg/mL (≈ 381 µM)
[6]; Mycobacterium smegmatis 607, No. 1001 medium, read-out: MIC
  MIC: 100 µg/mL (≈ 381 µM)
Micrococcus flavus D12; read-out: MIC
  MIC: 50 µg/mL (≈ 191 µM)
[7]; Staphylococcus aureus FDA 209P, read-out: MIC
  MIC: > 100 µg/mL
[8]; Bacillus subtilis PCI 219, read-out: MIC
  MIC: > 100 µg/mL
[9]; Klebsiella pneumoniae D-11, read-out: MIC
  MIC: > 100 µg/mL
[10]; read-out: MIC
  MIC: > 100 µg/mL
Escherichia coli Juhl; Escherichia coli Juhl, read-out: MIC
  MIC: > 100 µg/mL
Proteus vulgaris A9436; read-out: MIC
  MIC: > 100 µg/mL

## COc1cc2c(cc1O)N=CC1CCC(O)N1C2=O (stereo not drawn) [Neothramycin]
[1]; 0.03 mg/kg/day ip
  T/C (%) in MST: 96%
[1]; 0.1 mg/kg/day ip
  T/C (%) in MST: 104%
[1]; 0.3 mg/kg/day ip
  T/C (%) in MST: 112%
[1]
  antitumor activity in P388 experiment (comparison): similarly active
Lymphatic leukemia P388; 0.1 mg/kg/day i.p.
  Average weight change: +1.0 g
  MST: 13.0 days
  Survivors Day 5: 6/6
  Survivors Day 22: 0/6
  Effect MST % T/C: 108%
Lymphatic leukemia P388; 0.3 mg/kg/day i.p.
  Average weight change: +0.8 g
  MST: 14.5 days
  Survivors Day 5: 6/6
  Survivors Day 22: 0/6
  Effect MST % T/C: 121%
Lymphatic leukemia P388; 1 mg/kg/day i.p.
  Average weight change: +0.5 g
  MST: 17.0 days
  Survivors Day 5: 6/6
  Survivors Day 22: 0/6
  Effect MST % T/C: 142%
Lymphatic leukemia P388; 3 mg/kg/day i.p.
  Average weight change: 0.0 g
  MST: 17.5 days
  Survivors Day 5: 6/6
  Survivors Day 22: 0/6
  Effect MST % T/C: 146%
Lymphatic leukemia P388; i.p., epimer: 1 mg/kg/day, the highest dose tested
  antitumor activity in second P388 experiment (in words): similarly active
[11]
  LD50: 20 to 30 mg/kg
Escherichia coli NIHJ; Escherichia coli
  MIC: 50 µg/mL (≈ 191 µM)
[3]; Streptococcus pyogenes
  MIC: 100 µg/mL (≈ 381 µM)
[4]
  MIC: 50 µg/mL (≈ 191 µM)
[5]; Staphylococcus aureus
  MIC: > 100 µg/mL
Mycobacterium phlei D88; D88
  MIC: > 100 µg/mL
[6]; 607
  MIC: > 100 µg/mL
Micrococcus flavus D12
  MIC: 100 µg/mL (≈ 381 µM)
[7]; Staphylococcus aureus
  MIC: > 100 µg/mL
[8]; Bacillus subtilis
  MIC: 50 µg/mL (≈ 191 µM)
[9]; Klebsiella pneumoniae
  MIC: 100 µg/mL (≈ 381 µM)
[10]
  MIC: > 100 µg/mL
Escherichia coli Juhl; Escherichia coli
  MIC: > 100 µg/mL
Proteus vulgaris A9436
  MIC: 100 µg/mL (≈ 381 µM)
